Results reported in patent US9340585B2, “Competence stimulating peptide” (INSTITUT NATIONAL DE LA RECHERCHE AGRONOMIQUE, priority 2009, dated 2016).
Where no end group is shown, it is not given here. The star is where a group is joined. Cam = NC(=O)C*

Experiments:
[1] = tested on: strain deleted for the papR gene; experiment: Transformation assay: peptide added to culture of papR-deleted strain in CDM; format: cell-based, S. thermophilus; conditions: for Competence: peptide stimulates competence, YES/NO
Experimental: (§1) S. thermophilus cells are grown overnight at 42° C. in CDM. The culture is then diluted in CDM at an OD600 0.05. Sixty minutes after dilution, the competence stimulating peptide (CSP), which is the mature peptide comprising SEQ ID No1 or fragments or derivatives of SEQ ID No1 that allow to induce competence in S. thermophilus, is added to the culture at a final concentration of 1 μM. Ten minutes later, 100 μl of the culture containing the CSP is mixed with 1 μg of DNA and incubated for 2 hours at 28° C. when mixed with a thermosensitive replicative plasmid DNA or 1 hour at 42° C. when mixed with chromosomal DNA or PCR fragments, before being serially diluted and spread on M17lac plates with the appropriate antibiotic.
The inventors tested the activity of fragments of SEQ ID No1 using a strain deleted for the papR gene using the protocol described in part 8. The inventors thus synthesized different fragments of SEQ ID No1 in order to test their biological activity. Fragments were synthesized as below:
(§2) To test the biological activity of those fragments, peptides were added to a culture of a strain deleted for the papR gene at a final concentration of 1 μM, 1 hour after the dilution of the culture at an OD600 of 0.05 in a chemical defined medium (CDM). Transformation assays were performed with 100 μl of cells with 1 μg of plasmid and or chromosomal DNA.

[2] = tested on: S. thermophilus strain LMG18311; experiment: Transformation assay: peptide added to culture of strain LMG18311; format: cell-based
Experimental: as §1, §2
(§3) S. thermophilus strain LMG18311 is naturally poorly competent and strain CNRZ1066 is naturally not competent. However, complementation of both strains with a plasmid that overexpresses the papR gene makes them competent. […]

[3] = tested on: S. thermophilus strain CNRZ1066; experiment: Transformation assay: peptide added to culture of strain CNRZ1066; format: cell-based
Experimental: as §1, §2, §3

[4] = Chromosomal transforming DNA 1 μg, peptide 1 μM, fragment comparison
[5] = Chromosomal transforming DNA, alkylation comparison

PYFAGCL (Fragment of SEQ ID N07) [SEQ ID N^o13]
numbers of transformants obtained with 100 μl of competent cells [1, 4]: 0 | numbers of transformants obtained with 100 μl of competent cells ([1]; Plasmid transforming DNA 1 μg, peptide 1 μM, fragment comparison): 0

LPYFAGCL (Fragment of SEQ ID N07) [SEQ ID N^o12]
numbers of transformants obtained with 100 μl of competent cells [1, 4]: 41

IAILPYFAGCL (listed as Streptococcus thermophilus) [SEQ ID N^o7]
numbers of transformants obtained with 100 μl of competent cells [1, 4]: 24 | numbers of transformants obtained with 100 μl of competent cells [1, 5]: 35 | Competence ([1]; listed as 7): YES | Competence ([1]; listed as SEQ ID No7): active competence peptide | competence after addition of the peptide to the culture ([2]; LMG18311, result in words): renders them competent | numbers of transformants obtained with 100 μl of competent cells ([2]; LMG18311, Chromosomal transforming DNA): 477 | competence after addition of the peptide to the culture ([3]; CNRZ1066, result in words): renders them competent | numbers of transformants obtained with 100 μl of competent cells ([3]; CNRZ1066, Chromosomal transforming DNA): 0

IAILPYFAGC*L (IAILPYFAGC(Cam)L; listed as Streptococcus thermophilus) [Alkylated SEQ ID N^o7]
numbers of transformants obtained with 100 μl of competent cells [1, 5]: 0 | numbers of transformants obtained with 100 μl of competent cells ([1]; Plasmid transforming DNA, alkylation comparison): 2
